For 1 molecule, melting point results are on record in US20090221600A1, “PYRIDO-PYRIDIMIDINE DERIVATIVES USEFUL AS ANTIINFLAMMATORY AGENTS” (priority 2005, published 2009).

Usually melting point stands for the temperature, or range, at which the solid turns liquid. For the molecule `Cc1ccccc1-c1cc2cnc(NC3CCN(Cc4ccccc4)CC3)nc2n(C2CCOCC2)c1=O` [Compound No. 9, 2-[(1-Benzyl-piperidin-4-yl)amino]-6-(2-methyl-phenyl)-8-(tetrahydro-2H-pyran-4-yl)pyrido[2,3-d]pyrimidin-7(8H)-one], the melting point lay in the range of 201.8 to 203.2 °C.
